According to patent publication US10080365B2, “Use of strobilurin type compounds for combating phytopathogenic fungi resistant to Qo inhibitors” (BASF SE, priority 2011, dated 2018):
Where two headings read alike, the source gives them in different places.

Key:
[1] = system: Septoria tritici isolates containing the G143A in the cytochrome b gene; experiment: Glass house Trial 3: control of leaf blotch on wheat caused by two Septoria tritici isolates containing G143A; assay type: in vivo; conditions: % diseased leaf area after about 28 days
Method: The spray solutions were prepared in several steps:
The stock solution was prepared as follows: 1.26 ml of a 1:1 mixture of cyclohexanone and dimethylsulfoxide was added to 8.4 mg of active ingredient. Next, 40.74 ml of a mixture of water, acetone (10%), the emulsifier Wettol (0.1%) and the wetting agent Silwet (0.05%) was added. This stock solution was then further diluted with the described solvent-emulsifier-water mixture to the desired concentrations.
Trial 3: Control of Leaf Blotch on Wheat Caused by Caused by Two Septoria tritici Isolates Containing the G143A in the Cytochrome b Gene for their Cytochrome Bc1 Complex
Wheat plants were grown in pots. These plants were sprayed to run-off with an aqueous suspension, containing the desired concentration of active ingredient. The next day, the treated plants were inoculated with an aqueous suspension of Septoria tritici. After inoculation, the trial plants were covered with a lid and immediately transferred to a chamber with a relative humidity of about 83 to 85% and 19.5 to 20° C. After 4 days the lid was removed. Altogether, the trial plants were cultivated for about 28 days in that greenhouse chamber. The extent of fungal attack on the leaves was then visually assessed as % diseased leaf area.

[2] = system: Septoria tritici (Qo-inhibitor-resistant, G143A mutant); experiment: Microtiter test, Septoria tritici Qo-inhibitor-resistant G143A mutant (Use Example 1); assay type: cell-based; conditions: for IC50: read-out: Resistant Septoria tritici isolate (G143A mutation) (R-IC50); for Resistance factor RF = R-IC50/S-IC50: ratio of IC50 for G143A resistant isolate to IC50 for wild-type sensitive isolate
Method: (§1) The active substances were formulated separately as a stock solution in dimethyl sulfoxide (DMSO) at a concentration of 10 000 ppm.
(§2) Activity against the Septoria blotch pathogen caused by Septoria tritici in the microtiter test
(§3) Fungal strains used: • a) Septoria tritici (Qo-inhibitor sensitive, wild-type) • b) Septoria tritici (Qo-inhibitor-resistant, G143A mutant)
(§4) 100 ml 2% Malt extract in water at pH6.8 were inoculated with microspores from 2 week old cultures grown on 2% malt extract+2% agar in Petri dishes and incubated for 3 days on a rotary shaker at 24° C. und 150 rpm. The culture was harvested, glycerol was added (15% (v/v) and kept frozen at −20° C. in aliquots of 1 ml.
(§5) 1 ml stock suspension was thawed and suspended into 800 ml of 2% malt extract in water at pH 6.8. Compounds were diluted from stock solution in (dimethylsulfoxide) DMSO in 10 steps. The compound solutions were diluted 1/5 with sterile deionized water before use. 5 μl of the compound solutions were transferred into empty microplates. The plates were then filled with 195 μl of the microspore suspension of each strain.
(§6) The antifungal activity was determined by measuring the turbidity of a culture in 96-well microplates in the presence of test compounds. Fungal growth was measured by recording the optical density at 620 nm every 15 h for 150 h. The relative antifungal activity was calculated by comparison of the effect of the test compounds with the effect of a DMSO control and a standard fungicide.
(§7) IC50-values (concentration of test compound resulting in 50% inhibition of fungal growth) were calculated from the resulting dose-response for each compound and strain. The initial concentration of the test compounds and the 10 steps of dilution (1:4 each) allowed IC50-values from 0.001 to 100 μmol/l (μM) to be assessed.

[3] = system: Septoria tritici (Qo-inhibitor sensitive, wild-type); experiment: Microtiter test, Septoria tritici Qo-inhibitor sensitive wild-type (Use Example 1); assay type: cell-based; conditions: turbidity at 620 nm, read-out: Sensitive Septoria tritici isolate (wild type) (S-IC50)
Method: as §1, §2, §3, §4, §5, §6, §7

[4] = Resistant Septoria tritici isolate 1 (G143A mutation), 12.5 ppm
[5] = Resistant Septoria tritici isolate 1 (G143A mutation), 25 ppm
[6] = Resistant Septoria tritici isolate 1 (G143A mutation), 50 ppm
[7] = Resistant Septoria tritici isolate 1 (G143A mutation), 100 ppm
[8] = Resistant Septoria tritici isolate 1 (G143A mutation), 200 ppm
[9] = Resistant Septoria tritici isolate 2 (G143A mutation), 12.5 ppm
[10] = Resistant Septoria tritici isolate 2 (G143A mutation), 25 ppm
[11] = Resistant Septoria tritici isolate 2 (G143A mutation), 50 ppm
[12] = Resistant Septoria tritici isolate 2 (G143A mutation), 100 ppm
[13] = Resistant Septoria tritici isolate 2 (G143A mutation), 200 ppm
[14] = microtiter test, Qo-inhibitor-resistant G143A mutant, turbidity at 620 nm

Row | Structure (SMILES) | IC50 [2, 14] | Resistance factor RF = R-IC50/S-IC50 [2] | IC50 [3] | further results
1 | CO/C=C(C(=O)OC)\C(C)=C/COc1ccn(-c2ccc(Cl)cc2)n1 [Compound I-7, (Z)-5-[1-(4-Chloro-phenyl)-1H-pyrazol-3-yloxy]-2-[1-methoxy-meth-(E)-yl-idene]-3-methyl-pent-3-enoic acid methyl ester] | – | – | – | Disease level (%) [1, 4]: 100%; Disease level (%) [1, 5]: 80%; Disease level (%) [1, 6]: 20%; Disease level (%) [1, 7]: 3%; Disease level (%) [1, 8]: 3%; Disease level (%) [1, 9]: 90%; Disease level (%) [1, 10]: 15%; Disease level (%) [1, 11]: 5%; Disease level (%) [1, 12]: 1%; Disease level (%) [1, 13]: 0%
2 | CNC(=O)C(=NOC)C(C)=CCOc1ccn(-c2ccc(F)cc2F)n1 [Compound I-11] | – | – | – | Disease level (%) [1, 4]: 100%; Disease level (%) [1, 5]: 90%; Disease level (%) [1, 6]: 30%; Disease level (%) [1, 7]: 3%; Disease level (%) [1, 8]: 1%; Disease level (%) [1, 9]: 70%; Disease level (%) [1, 10]: 50%; Disease level (%) [1, 11]: 30%; Disease level (%) [1, 12]: 5%; Disease level (%) [1, 13]: 1%
3 | CNC(=O)C(=NOC)C(C)=CCOc1ccn(-c2ccc(F)cc2Cl)n1 [Compound I-14] | – | – | – | Disease level (%) [1, 4]: 100%; Disease level (%) [1, 5]: 80%; Disease level (%) [1, 6]: 70%; Disease level (%) [1, 7]: 15%; Disease level (%) [1, 8]: 3%; Disease level (%) [1, 9]: 90%; Disease level (%) [1, 10]: 70%; Disease level (%) [1, 11]: 15%; Disease level (%) [1, 12]: 5%; Disease level (%) [1, 13]: 1%
4 | Cn1nnn(-c2ccccc2COc2ccn(-c3ccc(Cl)cc3)n2)c1=O [Compound I-211] | 1.1 µM | 2.6 | 0.44 µM | Disease level (%) [1, 4]: 80%; Disease level (%) [1, 5]: 60%; Disease level (%) [1, 6]: 10%; Disease level (%) [1, 7]: 3%; Disease level (%) [1, 8]: 1%; Disease level (%) [1, 9]: 30%; Disease level (%) [1, 10]: 10%; Disease level (%) [1, 11]: 5%; Disease level (%) [1, 12]: 1%; Disease level (%) [1, 13]: 0%
5 | Cc1cc(-c2cnco2)c(C)cc1OCc1ccccc1-n1nnn(C)c1=O [Compound I-267] | 5 µM | 1.7 | 2.9 µM | –
6 | Cc1cc(-c2c(C)noc2C)c(C)cc1OCc1ccccc1-n1nnn(C)c1=O [Compound I-269] | 74 µM | 10 | 8 µM | –
7 | Cc1ncc(-c2cc(C)c(OCc3ccccc3-n3nnn(C)c3=O)cc2C)o1 [Compound I-270] | 57 µM | 10 | 6 µM | –
8 | Cc1cc(-c2cnoc2)c(C)cc1OCc1ccccc1-n1nnn(C)c1=O [Compound I-271] | 7 µM | 3.9 | 1.9 µM | –
9 | Cc1c(OCc2ccccc2-n2nnn(C)c2=O)nn2c(C3CC3)cc(C3CC3)nc12 [Compound I-273] | 22 µM | 4 | 5 µM | –
10 | CC(=NOCc1ccccc1-n1nnn(C)c1=O)C(=O)c1ccc(C)c(C)c1 [Compound I-274] | 19 µM | 2.0 | 9 µM | –
11 | CCC(=CCOc1ccn(-c2ccc(Cl)cc2)n1)C(=NOC)C(=O)NC [Compound I-287] | 18 µM | 12 | 1.5 µM | –
12 | CNC(=O)C(=NOC)C(C)=CCOc1ncn(-c2ccc(Cl)cc2)n1 [Compound I-288] | 28 µM | 8.0 | 3.5 µM | –
13 | CON=C(C(=O)OC)C(C)=CCOc1ncn(-c2ccc(Cl)c(Cl)c2)n1 [Compound I-291] | 18 µM | 18.0 | 1 µM | –
14 | CON=C(C(=O)OC)C(C)=CCOc1ncn(-c2ccc(Br)cc2)n1 [Compound I-292] | 33 µM | 4.2 | 7.9 µM | –
15 | CON=C(C(=O)OC)C(C)=CCOc1ncn(-c2cc(C(F)(F)F)ccc2Cl)n1 [Compound I-298] | 31 µM | 8.6 | 3.6 µM | –
16 | CON=C(C(=O)OC)C(C)=CCOc1ncn(-c2ccc(Cl)cc2Cl)n1 [Compound I-303] | 4.6 µM | 17.0 | 0.27 µM | –

Row | Structure (SMILES) | IC50 [2, 14] | Resistance factor RF = R-IC50/S-IC50 [2] | IC50 [3] | further results
17 | CCc1ccc(-n2cnc(OCC=C(C)C(=NOC)C(=O)OC)n2)cc1 [Compound I-304] | 9.1 µM | 17.2 | 0.53 µM | –
18 | CNC(=O)C(=NOC)C(C)=CCOc1ncn(-c2ccc(Cl)cc2Cl)n1 [Compound I-305] | 32 µM | 3.4 | 9.3 µM | –
19 | CON=C(C(=O)OC)C(C)=CCOc1ccn(-c2cc(Cl)ccc2C)n1 [Compound I-307] | 67 µM | 3.5 | 19 µM | –
20 | CON=C(C(=O)OC)C(C)=CCOc1ncn(-c2ccc(C)c(Cl)c2)n1 [Compound I-310] | 11 µM | 28.2 | 0.39 µM | –
21 | CON=C(C(=O)OC)C(C)=CCOc1ncn(-c2ccccc2C)n1 [Compound I-319] | – | 6.0 | 17 µM | –
22 | CON=C(C(=O)OC)C(C)=CCOc1ncn(-c2cc(C)ccc2C)n1 [Compound I-324] | 38 µM | 20.0 | 1.9 µM | –
23 | CON=C(C(=O)OC)C(C)=CCOc1ncn(-c2ccc(C(F)(F)F)cc2Cl)n1 [Compound I-326] | 18 µM | 15.0 | 1.2 µM | –
24 | CON=C(C(=O)OC)C(C)=CCOc1ncn(-c2cc(Cl)cc(Cl)c2)n1 [Compound I-331] | 25 µM | 13.9 | 1.8 µM | –
25 | CNC(=O)/C(=N/OC)c1ccccc1COc1cc(C)ccc1C [Dimoxystrobin, reference compound] | > 100 µM | – | 7.1 µM | –
26 | CO/C=C(/C(=O)OC)c1ccccc1CO/N=C(C)/C=C/c1ccc(Cl)cc1 [Enestroburin, reference compound] | > 100 µM | – | 4.5 µM | –
27 | CO/N=C(/C(=O)OC)c1ccccc1COc1ccccc1C [Kresoximmethyl] | – | – | – | IC50 ([2]; Zymoseptoria tritici): > 100 µM; IC50 ([3]; Zymoseptoria tritici): 0.76 µM
28 | CNC(=O)/C(=N/OC)c1ccccc1Oc1ccccc1 [Metominostrobin, reference compound] | – | – | – | IC50 ([2]; Zymoseptoria tritici): > 100 µM; IC50 ([3]; Zymoseptoria tritici): > 100 µM
29 | CNC(=O)/C(=N/OC)c1ccccc1CO/N=C(C)/C(=N/OC)C(/C)=N/OC [Orysastrobin, reference compound] | > 100 µM | – | 27 µM | –
30 | CO/C=C(/C(=O)OC)c1ccccc1COc1cccc(C(F)(F)F)n1 [Picoxystrobin, reference compound] | > 100 µM | – | 2.3 µM | –
31 | COC(=O)N(OC)c1ccccc1COc1c(C)c(-c2ccccc2)nn1C [Pyrametostrobin, reference compound] | > 100 µM | – | > 100 µM | –
32 | CO/C=C(/C(=O)OC)c1ccccc1COc1cc(-c2ccc(Cl)cc2)nn1C [Pyraoxystrobin, reference compound] | > 100 µM | – | 1.6 µM | –
